# Legend:
# [1] = in vivo; cited from earlier work
# [2] = Description: This study was a prospective, multicentric, PK/PD study. It included pediatric patients who were admitted to the pediatric ICU between July 2017 and November 2019 at two hospitals in Santiago, Chile. The Ethical Committee for Research of Clinica Las Condes approved this prospective study (approval number: M012017) and required signed written informed consent from each patient’s parents. […] Neonates were excluded.
# Meropenem was administered as a 3-h infusion with intravenous doses of 20–40 mg/kg every 8 or 12 h. […] Both antibiotics’ doses were adjusted according to renal function. Blood samples were collected at 1 and 3 h post-infusion and before the following dose for meropenem.
# Unbound meropenem plasma concentrations were determined by high-performance liquid chromatography (Agilent Infinity 1,260, Santa Clara, United States) with a UV detector. The methodology was adapted to the equipment conditions from available publications ([Elkhaïli et al., 1996]; [McWhinney et al., 2010]; [Wolff et al., 2013]) and validated according to the recommendations of the Bioanalytical Method Validation Guidance for Industry ([U.S. Department of Health and Human Services, 2018]). The stationary phase was a Zorbax Eclipse Plus C18 column (3.5 μm, 75 × 4.6 mm) and the mobile phase was acetonitrile with 10 mM ammonium acetate (pH 4.0) (5:95, organic solvent:buffer initiallity) in gradient to minute 7(50:50, organic solvent:buffer). Meropenem was detected by UV detection at 298 nm. The flow rate was 1.0 ml/min. […] Standard curves were prepared in blank human plasma. […] Meropenem in plasma samples was quantified using the peak area of standard samples for calibrations.
# For both analytes, the measurement was performed on the free-drug, non-protein bound fraction.
# Pharmacokinetic modelling was performed using PMetrics 1.5.0 with RStudio 0.99.902 and digital compiler Gfortran 5.2. […] Primary pharmacokinetic parameters of CL and Vd for the central compartment were calculated. Elimination from the central compartment and inter-compartmental distribution were modelled as first-order processes. Inter-compartmental distribution was described as rate of transfer from the unbound compartment to a peripheral compartment (Kcp) and rate of transfer from a peripheral compartment to the unbound compartment (Kpc). […] Volume of the peripheral compartment (Vp) was calculated as (Vc*Kcp)/Kpc, where Vc is the volume of the central compartment. Total Vd was calculated as the sum of Vc and Vp.
# We selected the final model on the basis of minimizing the Akaike Information Criterion (AIC) and likelihood of the nested models (-2*Log-likelihood, -2*LL), with both criteria penalized by the number of parameters in the model. A reduction of -2*LL as calculated within Pmetrics was used for statistical comparison of nested models. We also factored bias (mean weighted predicted-observed error) and imprecision (bias-adjusted, mean weighted squared predicted-observed error) and correlation co-efficient into the selection of the final model. Shrinkage was calculated as the percentage of total variance in each model probability distribution.
# Covariate model building was performed using sequential assessment of biologically plausible clinical characteristics. Continuous data was used for all covariates tested, with the exception of gender, which was male/female. The association of the covariates versus parameters was assessed by regression with linear or non-linear associations able to be used in the covariate model testing with inclusion based upon biological plausibility and a statistically significant improvement in log-likelihood. Inclusion age (months), weight (kg), height (cm), gender, C-reactive protein (mg/L), albumin (g/L), total bilirubin (mg/dl), serum creatinine (mg/dl), 24-h hydric balance (ml).
# [3] = system: Pseudomonas aeruginosa; settings: in vivo
# Description: For meropenem analysis, we used the plasma concentration at 1 h after the end of a 3-h infusion of the drug corresponding to a dosing interval of 50%.
# [4] = parameters: method as in Rybak, 2006; settings: ref Rybak, 2006; cited from earlier work
# [5] = pediatric ECMO patients, 11 PK profiles, population median
Structure (SMILES),"meropenem clearance in most reported studies, range [1]","CL (clearance of meropenem), median ([2]; human, in vivo)","Kcp (rate of transfer central to peripheral compartment), meropenem, mean ([2]; human, in vivo)","Kcp, meropenem, median ([2]; human, in vivo)","Kpc (rate of transfer peripheral to central compartment), meropenem, mean ([2]; human, in vivo)","Kpc, meropenem, median ([2]; human, in vivo)","Vc (central volume of distribution of meropenem), median ([2]; human, in vivo)","Vd (vc + vp), meropenem, mean ([2]; human, in vivo)","Vp (Vc*kcp/kpc), meropenem, mean ([2]; human, in vivo)",PK profiles achieving PK/PD target fT 50% > 4 x MIC [3],elimination route [4],"Kcp (rate of transfer central to peripheral compartment), vancomycin, mean ([2]; pediatric ECMO patients, 11 PK profiles, population mean)","Kcp, vancomycin, median [2, 5]","Kpc, vancomycin, median [2, 5]"
C[C@@H](O)[C@H]1C(=O)N2C(C(=O)O)=C(S[C@@H]3CN[C@H](C(=O)N(C)C)C3)[C@H](C)[C@H]12 [meropenem],2.17 to 17.55 mL/min/kg,2.4 mL/min/kg,1.37 h⁻¹,1.30 h⁻¹,1.25 h⁻¹,1.34 h⁻¹,0.289 L/kg,0.606 L/kg,0.317 L/kg,91%,–,–,–,–
CN[C@H](CC(C)C)C(=O)N[C@H]1C(=O)N[C@@H](CC(N)=O)C(=O)N[C@H]2C(=O)N[C@H]3C(=O)N[C@H](C(=O)N[C@H](C(=O)O)c4cc(O)cc(O)c4-c4cc3ccc4O)[C@H](O)c3ccc(c(Cl)c3)Oc3cc2cc(c3O[C@@H]2O[C@H](CO)[C@@H](O)[C@H](O)[C@H]2O[C@H]2C[C@](C)(N)[C@H](O)[C@H](C)O2)Oc2ccc(cc2Cl)[C@H]1O [vancomycin],–,–,–,–,–,–,–,–,–,–,nearly completely renally eliminated,0.483 h⁻¹,0.481 h⁻¹,0.286 h⁻¹

# — article PMC8411703 (Frontiers in Pharmacology, 2021)
